Data on two compounds can be found in BindingDB's records for doi:10.1080/14756360903179351 (University of Tehran, 2010).

The term Ki denotes the dissociation constant of the complex between target and ligand, obtained from inhibition or displacement.

This assay has as its target T1, Polyphenol oxidase 1 (White button mushroom, UniProt Q00024).
T1 sequence (Q00024 whole entry): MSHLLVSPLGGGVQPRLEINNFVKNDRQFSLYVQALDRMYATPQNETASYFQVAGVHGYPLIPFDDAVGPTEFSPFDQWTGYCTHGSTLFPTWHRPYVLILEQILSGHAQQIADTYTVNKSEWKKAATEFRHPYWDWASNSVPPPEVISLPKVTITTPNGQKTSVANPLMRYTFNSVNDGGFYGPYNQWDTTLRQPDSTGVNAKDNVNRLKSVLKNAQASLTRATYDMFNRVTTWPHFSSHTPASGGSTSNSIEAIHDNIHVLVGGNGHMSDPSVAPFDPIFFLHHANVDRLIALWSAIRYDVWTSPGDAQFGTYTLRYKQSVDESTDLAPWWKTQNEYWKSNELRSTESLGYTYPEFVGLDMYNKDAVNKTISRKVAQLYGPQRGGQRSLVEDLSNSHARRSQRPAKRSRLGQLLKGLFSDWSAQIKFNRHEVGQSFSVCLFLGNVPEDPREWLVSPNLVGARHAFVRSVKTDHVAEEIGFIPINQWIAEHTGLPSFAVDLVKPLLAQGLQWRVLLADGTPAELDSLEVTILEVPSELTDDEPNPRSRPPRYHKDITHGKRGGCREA
The assay can be described thus: MT Kinetic Assay. Conditions: pH 6.8. The procedure:
The assay was performed as previously described with slight modifications [Chen et al., J. Agric. Food Chem., 50:4108-12]. The reaction medium was 1 mL in 50 mM phosphate buffer (pH 6.8). The final concentration of mushroom tyrosinase was 26.07 μg/mL for cresolase activity and 6.52 μg/mL for catecholase activity. Freshly prepared enzyme, substrate, and dithiocarbamates I and II were used in this work. The reaction was carried out under constant temperatures of 27 and 37°C. Substrate addition followed incubation of the enzyme with different concentrations of synthetic inhibitors.

“And” between values parts separate entries of the source, which are not always exact repeats. Equal entries are not always repeated. Structures can show the parent of a compound that is named as a salt.

As to `S=C(S)NCc1ccccc1`, the inhibitory constant (Ki) was 14.1 µM and 9.4 µM (27 °C); 5.9 µM and 5.7 µM (37 °C).

On to `S=C(S)NCc1ccc(CNC(=S)S)cc1` [p-Xylidine-bis(dithiocarbamate) sodium salt (II)], for which the Ki runs as follows: (27 °C) 0.64 µM and 0.29 µM; (37 °C) 0.95 µM and 1.05 µM.
